# Assay results reported in PMC8081208, “Characterization of glutathione S-transferase enzymes in Dictyostelium discoideum suggests a functional role for the GSTA2 isozyme in cell proliferation and development” (PLoS ONE, 2021).
# Columns and labels:
# rDdGSTA2 = molecular target: T1, rDdGSTA2 (Dictyostelium discoideum, UniProt Q556G3); test: CDNB conjugation, absorbance at […] nm, Michaelis-Menten fit; assay type: biochemical; conditions: saturating GSH; pH 7.5; 25°C
# T1 construct: gene gsta2-1
# T1 sequence (Q556G3 1-198): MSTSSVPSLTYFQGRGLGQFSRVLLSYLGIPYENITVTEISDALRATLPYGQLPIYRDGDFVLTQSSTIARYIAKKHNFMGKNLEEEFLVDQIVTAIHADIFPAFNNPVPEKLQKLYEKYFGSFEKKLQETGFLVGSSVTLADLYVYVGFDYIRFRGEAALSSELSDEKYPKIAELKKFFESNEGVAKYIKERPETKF
# rDdGSTA3 = molecular target: T2, rDdGSTA3 (Dictyostelium discoideum, UniProt Q54VI4); test: as above; assay type: biochemical; conditions: saturating GSH; pH 7.5; 25°C
# T2 construct: gene gsta3
# T2 sequence (Q54VI4 1-204): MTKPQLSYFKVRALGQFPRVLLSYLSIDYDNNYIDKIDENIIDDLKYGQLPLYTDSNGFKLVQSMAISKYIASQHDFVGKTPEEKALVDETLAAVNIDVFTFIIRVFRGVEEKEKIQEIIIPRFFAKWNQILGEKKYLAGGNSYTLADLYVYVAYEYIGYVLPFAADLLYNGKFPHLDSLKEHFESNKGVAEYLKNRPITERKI
smiles,measurement,setting,value
"O=[N+]([O-])c1ccc(Cl)c([N+](=O)[O-])c1 [CDNB, 1-chloro-2,4-dinitrobenzene]",Km,rDdGSTA2,1290 ± 200 µM
same,Km,rDdGSTA3,562 ± 98.1 µM
